Results reported in US11702422B2, “Imidazopyridazines as modulators of IL-17” (Janssen Pharmaceutica NV, priority 2020, dated 2023).
Where a name gives a salt, the structure may show the parent alone.

What was measured:
[1] = target: IL-17A(FLAG-Tagged): IL-17RA(His-Tagged) (Homo sapiens, UniProt Q16552, K93Q); experiment: IL-17A(FLAG-Tagged): IL-17RA(His-Tagged) Binding Disruption Eu-HTRF Assay; conditions: IL-17A/IL-17RA binding disruption, simple average if tested more than once
Excerpt: IL-17A(FLAG-Tagged): IL-17RA(His-Tagged) Binding Disruption Eu-HTRF Assay
An antibody directed against the FLAG tag of IL-17A (SEQ ID NO:1) is labeled with the HTRF donor chromophore (Europium-cryptate). IL-17A is present as a dimer that is “locked into” this quaternary structure due to the formation of loop-spanning […] disulfide bridges. The construct of IL-17RA used in the assay excludes the […] portion of the receptor and is fused to a C-terminal 10×His tag (SEQ ID NO:2). An antibody directed against the His tag of the IL-17RA chimera is labeled with the HTRF acceptor chromophore (“D2”). The fluorescence-resonance energy transfer (FRET) depends on the vicinity of the donor chromophore to the acceptor, and interruption of the binding between the IL-17A and IL-17RA causes the reduction/loss of FRET. Therefore, this assay allows to evaluate the compound effect on the binding IL-17A and IL-17RA by monitoring the fluorescence intensity of donor vs acceptor. The assay is run as described below.
40 nl of 2-fold serial diluted compound solution for total 22 dilution points is added into each well of a 1536-well, white, low-volume, non-binding plate (Greiner #782904), then 2 μl of FLAG tagged IL-17A at 2× final concentration (2.5 nM) in solution of PBS+0.01% Triton-X100 is added to each well. The assay plate is briefly centrifuged then incubated for 1 h at rt. A mixed solution is prepared containing 2×5 nM 10HIS×IL-17RA, 2×2.5 nM Eu-anti-FLAG (CISBIO), 2×5 nM D2-anti-HIS (CISBIO) in PBS+0.01% Triton-X100+200 mM Potassium Fluoride (Sigma 60238) and 2 μl of mix is added to each well of the assay plate. The plate is briefly centrifuged then incubated for 2 h at rt. The HTRF intensities at the wavelength of donor (620 nm) and acceptor (665 nm) are measured using BMG Pherastar. The ratio between intensities at two wavelengths is calculated and plotted against the compound concentration and the data is fitted to a one-site competition model to yield IC50 of the compound.

[2] = system: IL-17A-induced G-CSF production in human normal keratinocyte (NHK); experiment: NHK Assay: IL-17A-induced G-CSF production in human normal keratinocytes; assay type: cell-based; conditions: Homo sapiens, Keratinocyte, 24 h, adult normal human keratinocytes, IL-17A 5 ng/mL, simple average if tested more than once
Experimental: IL-17A acts directly on keratinocytes through binding to dimeric receptor IL-17RA/RC and drives the production of a number of inflammatory mediators known to be elevated in psoriasis lesional tissue. IL-17A small molecule inhibitors that block the IL-17A to interact with IL-17R would inhibit the IL-17A signaling in its targeted cells such as keratinocytes. The compound functional activity is evaluated for its impact on IL-17A-induced G-CSF production in human normal keratinocyte (NHK).
Adult normal human keratinocytes are cultured in keratinocyte growth medium (Lonza) in a flask till reaching ˜ 90% confluence, then cells are transferred to a 384-well plate at density of 3000-4000 cell/well. Recombinant human IL-17A (Gibco PHC9174) is pre-incubated with titrated compound or DMSO for 1 h at rt then added to the cell culture plate. The final concentration of IL-17A is 5 ng/mL and DMSO is 0.2%, in the culture containing 5% FBS. Cells are cultured/treated for 24 h at 37° C. Supernatants are collected and G-CSF production is measured through HTRF technology using Human G-CSF Kit (CisBio). G-CSF concentration was extrapolated from the standard curve and IC50 is determined using GraphPad Prism. Cell viability is also evaluated using CellTiter-Glo kit (Promega) and effect of compound on cell viability is compared to DMSO control.

UniProt Q16552, sequence (Q16552 with tags, fused parts or gaps K93Q): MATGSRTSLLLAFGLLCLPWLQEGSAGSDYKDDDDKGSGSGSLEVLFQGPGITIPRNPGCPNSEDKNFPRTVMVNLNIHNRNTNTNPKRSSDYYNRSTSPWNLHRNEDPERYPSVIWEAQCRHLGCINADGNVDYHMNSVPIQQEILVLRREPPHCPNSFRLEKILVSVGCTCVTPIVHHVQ

SMILES: O=C(N[C@H](c1cn2ncc(CNC(=O)[C@@H]3NCCC[C@H]3C(F)(F)F)cc2n1)C1CCCCC1)c1ccccc1 (relative stereo) [Example 1, (Trans-2R*,3R*)—N-((2-((S)-benzamido(cyclohexyl)methyl)imidazo[1,2-b]pyridazin-7-yl)methyl)-3-(trifluoromethyl)piperidine-2-carboxamide hydrochloride]
- IC50 [1]: 180 nM
- IC50 [2]: 300 nM

SMILES: O=C(N[C@H](c1cn2ncc(CNC(=O)[C@H]3NCCC[C@@H]3C(F)(F)F)cc2n1)C1CCCCC1)c1ccccc1 (relative stereo) [Example 2, (Trans-2S*,3S*)—N-((2-((S)-benzamido(cyclohexyl)methyl)imidazo[1,2-b]pyridazin-7-yl)methyl)-3-(trifluoromethyl)piperidine-2-carboxamide hydrochloride]
- IC50 [1]: 7600 nM
- IC50 [2]: > 20000 nM

SMILES: Cn1nccc1C(=O)N[C@H](c1cn2ncc(CNC(=O)[C@@H]3NCCC[C@H]3C(F)(F)F)cc2n1)C1CCCCC1 (relative stereo) [Example 3, (Trans-2R*,3R*)—N-((2-((S)-cyclohexyl(1-methyl-1H-pyrazole-5-carboxamido)methyl)imidazo[1,2-b]pyridazin-7-yl)methyl)-3-(trifluoromethyl)piperidine-2-carboxamide hydrochloride]
- IC50 [1]: 97 nM
- IC50 [2]: 300 nM

SMILES: O=C(N[C@H](c1cn2ncc([C@H](NC(=O)[C@@H](O)CC(F)(F)F)C3CC3)cc2n1)C1CCC(F)(F)CC1)c1cnn(CC(F)(F)F)n1 (relative stereo) [Example 31, N—((S)-(7-((R*)-Cyclopropyl((S*)-4,4,4-trifluoro-2-hydroxybutanamido)methyl)imidazo[1,2-b]pyridazin-2-yl)(4,4-difluorocyclohexyl)methyl)-2-(2,2,2-trifluoroethyl)-2H-1,2,3-triazole-4-carboxamide]
- IC50 [1]: 360 nM
- IC50 [2]: 1300 nM

SMILES: CC(C)n1nccc1C(=O)N[C@H](c1cn2ncc([C@H](NC(=O)C[C@@H](O)C(F)(F)F)C3CC3)cc2n1)C1CCC(F)(F)CC1 (relative stereo) [Example 130, N—((S)-(7-((R*)-Cyclopropyl((R*)-4,4,4-trifluoro-3-hydroxybutanamido)methyl)imidazo[1,2-b]pyridazin-2-yl)(4,4-difluorocyclohexyl)methyl)-1-isopropyl-1H-pyrazole-5-carboxamide]
- IC50 [1]: 270 nM
- IC50 [2]: 390 nM

SMILES: CC(C)n1nccc1C(=O)N[C@H](c1cn2ncc([C@H](NC(=O)C[C@H](O)C(F)(F)F)C3CC3)cc2n1)C1CCC(F)(F)CC1 (relative stereo) [Example 131, N—((S)-(7-((R*)-Cyclopropyl((S*)-4,4,4-trifluoro-3-hydroxybutanamido)methyl)imidazo[1,2-b]pyridazin-2-yl)(4,4-difluorocyclohexyl)methyl)-1-isopropyl-1H-pyrazole-5-carboxamide]
- IC50 [1]: 87 nM
- IC50 [2]: 100 nM

SMILES: CC(C)n1nccc1C(=O)N[C@H](c1cn2ncc([C@H](NC(=O)C[C@@](C)(O)C(F)(F)F)C3CC3)cc2n1)C1CCC(F)(F)CC1 (relative stereo) [Example 132, N—((S)-(7-((R*)-Cyclopropyl((R*)-4,4,4-trifluoro-3-hydroxy-3-methylbutanamido)methyl)imidazo[1,2-b]pyridazin-2-yl)(4,4-difluorocyclohexyl)methyl)-1-isopropyl-1H-pyrazole-5-carboxamide]
- IC50 [1]: 220 nM
- IC50 [2]: 260 nM

SMILES: CC(C)n1nccc1C(=O)N[C@H](c1cn2ncc([C@H](NC(=O)C[C@](C)(O)C(F)(F)F)C3CC3)cc2n1)C1CCC(F)(F)CC1 (relative stereo) [Example 133, N—((S)-(7-((R*)-Cyclopropyl((S*)-4,4,4-trifluoro-3-hydroxy-3-methylbutanamido)methyl)imidazo[1,2-b]pyridazin-2-yl)(4,4-difluorocyclohexyl)methyl)-1-isopropyl-1H-pyrazole-5-carboxamide]
- IC50 [1]: 150 nM
- IC50 [2]: 360 nM

SMILES: O=C(CC1CC(F)(F)C1)N[C@@H](c1cnn2cc([C@@H](NC(=O)[C@H]3C[C@@H]3C(F)(F)F)C3CCC(F)(F)CC3)nc2c1)C1CC1 (relative stereo) [Example 143, (Trans-1S*,2S*)—N—((S)-(7-((R)-Cyclopropyl(2-(3,3-difluorocyclobutyl)acetamido)methyl)imidazo[1,2-b]pyridazin-2-yl)(4,4-difluorocyclohexyl)methyl)-2-(trifluoromethyl)cyclopropane-1-carboxamide]
- IC50 [1]: 130 nM
- IC50 [2]: 450 nM

SMILES: O=C(CC1CC(F)(F)C1)N[C@@H](c1cnn2cc([C@@H](NC(=O)[C@@H]3C[C@H]3C(F)(F)F)C3CCC(F)(F)CC3)nc2c1)C1CC1 (relative stereo) [Example 144, (Trans-1R*,2R*)—N—((S)-(7-((R)-Cyclopropyl(2-(3,3-difluorocyclobutyl)acetamido)methyl)imidazo[1,2-b]pyridazin-2-yl)(4,4-difluorocyclohexyl)methyl)-2-(trifluoromethyl)cyclopropane-1-carboxamide]
- IC50 [1]: 1400 nM
- IC50 [2]: 7000 nM

SMILES: O=C(CCC(F)(F)F)N[C@@H](c1cnn2cc([C@@H](NC(=O)[C@H]3C[C@@H]3C(F)(F)F)C3CCC(F)(F)CC3)nc2c1)C1CC1 (relative stereo) [Example 149, (Trans-1S*,2S*)—N—((S)-(7-((R)-Cyclopropyl(4,4,4-trifluorobutanamido)methyl)imidazo[1,2-b]pyridazin-2-yl)(4,4-difluorocyclohexyl)methyl)-2-(trifluoromethyl)cyclopropane-1-carboxamide]
- IC50 [1]: 240 nM
- IC50 [2]: 510 nM

SMILES: O=C(CCC(F)(F)F)N[C@@H](c1cnn2cc([C@@H](NC(=O)[C@@H]3C[C@H]3C(F)(F)F)C3CCC(F)(F)CC3)nc2c1)C1CC1 (relative stereo) [Example 150, (Trans-1R*, 2R*)—N—((S)-(7-((R)-Cyclopropyl(4,4,4-trifluorobutanamido)methyl)imidazo[1,2-b]pyridazin-2-yl)(4,4-difluorocyclohexyl)methyl)-2-(trifluoromethyl)cyclopropane-1-carboxamide]
- IC50 [1]: 1300 nM
- IC50 [2]: > 20000 nM

SMILES: C[C@H](CC(=O)N[C@@H](c1cnn2cc([C@@H](NC(=O)[C@@H]3C[C@H]3C(F)(F)F)C3CCC(F)(F)CC3)nc2c1)C1CC1)C(F)(F)F (relative stereo) [Example 241, (trans-1R*,2R*)—N—((S)-(7-((R)-Cyclopropyl((R*)-4,4,4-trifluoro-3-methylbutanamido)methyl)imidazo[1,2-b]pyridazin-2-yl)(4,4-difluorocyclohexyl)methyl)-2-(trifluoromethyl)cyclopropane-1-carboxamide]
- IC50 [1]: 3400 nM
- IC50 [2]: > 20000 nM

SMILES: C[C@@H](CC(=O)N[C@@H](c1cnn2cc([C@@H](NC(=O)[C@@H]3C[C@H]3C(F)(F)F)C3CCC(F)(F)CC3)nc2c1)C1CC1)C(F)(F)F (relative stereo) [Example 242, (trans-1R*,2R*)—N—((S)-(7-((R)-Cyclopropyl((S*)-4,4,4-trifluoro-3-methylbutanamido)methyl)imidazo[1,2-b]pyridazin-2-yl)(4,4-difluorocyclohexyl)methyl)-2-(trifluoromethyl)cyclopropane-1-carboxamide]
- IC50 [1]: 1300 nM
- IC50 [2]: 790 nM

SMILES: Cc1nonc1C(=O)N[C@H](c1cn2ncc([C@H](NC(=O)C[C@H]3CC3(F)F)C3CC3)cc2n1)C1CCC(F)(F)CC1 (relative stereo) [Example 255]
- IC50 [1]: 170 nM
- IC50 [2]: 600 nM
